The test system of the experiment is test plant species. Description: Post-emergent herbicidal activity test (greenhouse, foliar spray, visual growth reduction). It counts as in vivo. Conditions: post-emergence, 336 h, 140 g ai/ha. The essentials: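 Seedlings were raised 7-21 d in a greenhouse under a 15 h photoperiod until the first or second true leaf. Each compound, dissolved in acetone:DMSO 97:3 and diluted into a surfactant-containing spray mixture, was then applied at 187 L/ha. Plants were subirrigated, and growth reduction was scored visually at 14 d.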

[1] abbreviates: ECHCG: barnyardgrass (Echinochloa crus-galli), 14 days after application, read-out: Visual Growth Reduction (%) 14 Days After Application, ECHCG.
[2] abbreviates: IPOHE: ivy-leaf morning glory (Ipomoea hederacea), 14 days after application, read-out: Visual Growth Reduction (%) 14 Days After Application, IPOHE.
The mark [3] stands for this setting: KCHSC: kochia (Bassia scoparia), 14 days after application, read-out: Visual Growth Reduction (%) 14 Days After Application, KCHSC.
Where [4] appears, read: ORYSA: rice (Oryza sativa), 14 days after application, read-out: Visual Growth Reduction (%) 14 Days After Application, ORYSA.
Setting [5] is: SETFA: giant foxtail (Setaria faberi), 14 days after application, read-out: Visual Growth Reduction (%) 14 Days After Application, SETFA.
The mark [6] stands for this setting: SORVU: grain sorghum (Sorghum vulgare), 14 days after application, read-out: Visual Growth Reduction (%) 14 Days After Application, SORVU.
Where [7] appears, read: STEME: common chickweed (Stellaria media), 14 days after application, read-out: Visual Growth Reduction (%) 14 Days After Application, STEME.
Where [8] appears, read: TRZAS: wheat, spring (Triticum aestivum), 14 days after application, read-out: Visual Growth Reduction (%) 14 Days After Application, TRZAS.
Where [9] appears, read: blackgrass (Alopecurus myosuroides), 14 Days After Application, read-out: Visual Growth Reduction (%) ALOMY.
Where [10] appears, read: canada thistle (Cirsium arvense), 14 Days After Application, read-out: Visual Growth Reduction (%) CIRAR.
The mark [11] stands for this setting: crabgrass (Digitaria sanguinalis), 14 Days After Application, read-out: Visual Growth Reduction (%) DIGSA.
The mark [12] stands for this setting: lambsquarters (Chenopodium album), 14 Days After Application, read-out: Visual Growth Reduction (%) CHEAL.
The mark [13] stands for this setting: redroot pigweed (Amaranthus retroflexus), 14 Days After Application, read-out: Visual Growth Reduction (%) AMARE.
[14] abbreviates: wild oat (Avena fatua), 14 Days After Application, read-out: Visual Growth Reduction (%) AVEFA.
The mark [15] stands for this setting: yellow nutsedge (Cyperus esculentus), 14 Days After Application, read-out: Visual Growth Reduction (%) CYPES.

Read-outs that look alike come from different tables or passages of the source.

This note sets out measurements from US20230017045A1, “PYRIDINE AND PYRIMIDINE CARBOXYLATE HERBICIDES AND METHODS OF USE THEREOF” (Dow AgroSciences LLC, priority 2017, published 2023).

For `COC(=O)c1nc(-c2cc3ncsc3cc2F)c(F)cc1Cl` [F265, Methyl 3-chloro-5-fluoro-6-(6-fluorobenzo[d]thiazol-5-yl)picolinate], the pest or weed control at 140 g/ha is 0 to 29% under setting [1]; 0 to 29% under setting [2]; 0 to 29% under setting [3]; 0 to 29% under setting [4]; 0 to 29% under setting [5]; 0 to 29% under setting [6]. Also, the pest or weed control at 140 g/ha lay within 0 to 29% under setting [7]; 0 to 29% under setting [8]; 0 to 29% under setting [9]; 0 to 29% under setting [10]; 0 to 29% under setting [11]; 75 to 84% under setting [12]. Besides, the pest or weed control at 140 g/ha under setting [13] is 0 to 29%, the pest or weed control at 140 g/ha under setting [14] fell in the range of 0 to 29% and the pest or weed control at 140 g/ha under setting [15] was 0 to 29%.
Consider `COC(=O)c1nc(-c2ccc3ccsc3c2F)c(F)cc1Cl` [F266, Methyl 3-chloro-5-fluoro-6-(7-fluorobenzo[b]thiophen-6-yl)picolinate], for which the pest or weed control at 140 g/ha is 0 to 29% under setting [1]; 0 to 29% under setting [2]; 0 to 29% under setting [3]; 0 to 29% under setting [4]; 0 to 29% under setting [5]; 0 to 29% under setting [6]. Also, the pest or weed control at 140 g/ha by setting is: under setting [7], 0 to 29%; under setting [8], 0 to 29%; under setting [9], 0 to 29%; under setting [10], 0 to 29%; under setting [11], 0 to 29%; under setting [12], 0 to 29%. The pest or weed control at 140 g/ha was in the range of 0 to 29% under setting [13], 0 to 29% under setting [14] and 0 to 29% under setting [15].
With `Cc1cc(C(F)(F)F)ccc1-c1nc(C(=O)O)c(Cl)cc1F` [F267, 3-Chloro-5-fluoro-6-(2-methyl-4-(trifluoromethyl)phenyl) picolinic acid], the pest or weed control at 140 g/ha reads like this: under setting [1], 75 to 84%; under setting [2], 95 to 100%; under setting [3], 60 to 74%; under setting [4], 0 to 29%; under setting [5], 85 to 94%; under setting [6], 95 to 100%. Moreover, the pest or weed control at 140 g/ha reads like this: under setting [7], 0 to 29%; under setting [8], 60 to 74%; under setting [9], 30 to 44%; under setting [10], 85 to 94%; under setting [11], 85 to 94%; under setting [12], 95 to 100%. Moreover, the pest or weed control at 140 g/ha under setting [13] is 95 to 100%, the pest or weed control at 140 g/ha under setting [14] lay within 45 to 59% and the pest or weed control at 140 g/ha under setting [15] was 0 to 29%.
Turning to `COC(=O)c1nc(-c2ccc(F)cc2F)ccc1Cl` [F268, Methyl 3-chloro-6-(2,4-difluorophenyl) picolinate], the pest or weed control at 140 g/ha lay in the range of 0 to 29% under setting [1]; 0 to 29% under setting [2]; 0 to 29% under setting [3]; 0 to 29% under setting [4]; 0 to 29% under setting [5]; 60 to 74% under setting [6]. Besides, the pest or weed control at 140 g/ha is 0 to 29% under setting [7]; 0 to 29% under setting [8]; 0 to 29% under setting [9]; 30 to 44% under setting [10]; 0 to 29% under setting [11]; 60 to 74% under setting [12]. For the same molecule, the pest or weed control at 140 g/ha reads like this: under setting [13], 0 to 29%; under setting [14], 0 to 29%; under setting [15], 0 to 29%.
On to `COC(=O)c1nc(-c2ccc(OC)nc2)ccc1Cl` [F269, Methyl 5-chloro-6′-methoxy-[2,3′-bipyridine]-6-carboxylate], for which the pest or weed control at 140 g/ha under setting [1] was in the range of 0 to 29%; the pest or weed control at 140 g/ha under setting [2] lay in the range of 0 to 29%; the pest or weed control at 140 g/ha under setting [3] was in the range of 30 to 44%; the pest or weed control at 140 g/ha under setting [4] lay in the range of 0 to 29%; the pest or weed control at 140 g/ha under setting [5] fell in the range of 0 to 29%; the pest or weed control at 140 g/ha under setting [6] fell in the range of 0 to 29%. Further, the pest or weed control at 140 g/ha lay within 0 to 29% under setting [7]; 0 to 29% under setting [8]; 0 to 29% under setting [9]; 30 to 44% under setting [10]; 0 to 29% under setting [11]; 0 to 29% under setting [12]. The pest or weed control at 140 g/ha by setting is: under setting [13], 0 to 29%; under setting [14], 0 to 29%; under setting [15], 0 to 29%.
`COC(=O)c1nc(-c2ccc(Cl)cc2F)ccc1Cl` [F270, Methyl 3-chloro-6-(4-chloro-2-fluorophenyl) picolinate]: the pest or weed control at 140 g/ha runs as follows: under setting [1], 0 to 29%; under setting [2], 95 to 100%; under setting [3], 75 to 84%; under setting [4], 0 to 29%; under setting [5], 0 to 29%; under setting [6], 85 to 94%. The pest or weed control at 140 g/ha runs as follows: under setting [7], 30 to 44%; under setting [8], 45 to 59%; under setting [9], 0 to 29%; under setting [10], 75 to 84%; under setting [11], 85 to 94%; under setting [12], 85 to 94%. In addition, the pest or weed control at 140 g/ha reads like this: under setting [13], 45 to 59%; under setting [14], 0 to 29%; under setting [15], 45 to 59%.
For `COC(=O)c1nc(-c2cc(Cl)c(C)cc2F)ccc1Cl` [F271, Methyl 3-chloro-6-(5-chloro-2-fluoro-4-methylphenyl) picolinate], the pest or weed control at 140 g/ha under setting [1] fell in the range of 0 to 29%; the pest or weed control at 140 g/ha under setting [2] is 0 to 29%; the pest or weed control at 140 g/ha under setting [3] is 0 to 29%; the pest or weed control at 140 g/ha under setting [4] lay in the range of 0 to 29%; the pest or weed control at 140 g/ha under setting [5] was in the range of 0 to 29%; the pest or weed control at 140 g/ha under setting [6] fell in the range of 0 to 29%. For the same molecule, the pest or weed control at 140 g/ha lay within 0 to 29% under setting [7]; 0 to 29% under setting [8]; 0 to 29% under setting [9]; 0 to 29% under setting [10]; 0 to 29% under setting [11]; 60 to 74% under setting [12]. Further, the pest or weed control at 140 g/ha fell in the range of 0 to 29% under setting [13], 0 to 29% under setting [14] and 0 to 29% under setting [15].
For `COC(=O)c1nc(-c2ccc(Cl)c(C)c2F)ccc1Cl` [F272, Methyl 3-chloro-6-(4-chloro-2-fluoro-3-methylphenyl) picolinate], the pest or weed control at 140 g/ha runs as follows: under setting [1], 0 to 29%; under setting [2], 0 to 29%; under setting [3], 0 to 29%; under setting [4], 0 to 29%; under setting [5], 0 to 29%; under setting [6], 0 to 29%. Besides, the pest or weed control at 140 g/ha by setting is: under setting [7], 0 to 29%; under setting [8], 0 to 29%; under setting [9], 0 to 29%; under setting [10], 0 to 29%; under setting [11], 0 to 29%; under setting [12], 0 to 29%. Further, the pest or weed control at 140 g/ha under setting [13] was in the range of 0 to 29%, the pest or weed control at 140 g/ha under setting [14] lay within 0 to 29% and the pest or weed control at 140 g/ha under setting [15] was 0 to 29%.
